pEC50: −log10 of the molar value.

One test addresses L106P hMC4R (Homo sapiens, UniProt P32245, L106P). As to the kind of experiment: cAMP based CRE/β-galactosidase reporter gene functional bioassay, L106P hMC4R. In kind it is cell-based. A general note: A reporter such as luciferase makes a cellular process visible.
For another test, the target named is WT hMC4R (Homo sapiens, UniProt P32245). Format: cell-based.
Chain of WT hMC4R (P32245 whole entry): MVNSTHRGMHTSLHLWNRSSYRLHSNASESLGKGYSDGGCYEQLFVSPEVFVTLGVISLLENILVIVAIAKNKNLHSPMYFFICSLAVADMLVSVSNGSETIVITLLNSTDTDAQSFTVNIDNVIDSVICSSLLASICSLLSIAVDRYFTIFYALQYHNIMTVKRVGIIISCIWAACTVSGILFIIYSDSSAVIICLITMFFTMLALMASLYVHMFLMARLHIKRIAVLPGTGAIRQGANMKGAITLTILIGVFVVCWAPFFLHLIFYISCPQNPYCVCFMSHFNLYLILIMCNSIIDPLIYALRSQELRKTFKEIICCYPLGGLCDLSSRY

Chain of L106P hMC4R (P32245 whole entry L106P): as the sequence (P32245 whole entry) above, with L106P counted along it

One may read the pEC50 as −log10 of the EC50, conventionally taken in molar units. Low values mean a large EC50, high ones a small EC50. Consider `CC(=O)N[C@@H](Cc1cnc[nH]1)C(=O)N[C@H](Cc1ccccc1)C(=O)N[C@@H](CCCN=C(N)N)C(=O)N1Cc2ccccc2C[C@H]1C(N)=O` [EMH4-107, Ac-His-DPhe-Arg-Tic-NH2], for which the negative logarithm of the EC50 (pEC50) on L106P hMC4R was under 4.00; at WT hMC4R, under 5.00.

Source of the values: publication PMC4324447 (Journal of Medicinal Chemistry, 2014).
